Reference: patent publication US20240115557A1, “INHIBITORS OF RNA-GUIDED NUCLEASES AND USES THEREOF” (The Brigham and Women's Hospital, Inc., priority 2022, published 2024)

Target: T1, SaCas9 (Staphylococcus aureus, UniProt J7RUA5)
T1 sequence (J7RUA5 1-1053): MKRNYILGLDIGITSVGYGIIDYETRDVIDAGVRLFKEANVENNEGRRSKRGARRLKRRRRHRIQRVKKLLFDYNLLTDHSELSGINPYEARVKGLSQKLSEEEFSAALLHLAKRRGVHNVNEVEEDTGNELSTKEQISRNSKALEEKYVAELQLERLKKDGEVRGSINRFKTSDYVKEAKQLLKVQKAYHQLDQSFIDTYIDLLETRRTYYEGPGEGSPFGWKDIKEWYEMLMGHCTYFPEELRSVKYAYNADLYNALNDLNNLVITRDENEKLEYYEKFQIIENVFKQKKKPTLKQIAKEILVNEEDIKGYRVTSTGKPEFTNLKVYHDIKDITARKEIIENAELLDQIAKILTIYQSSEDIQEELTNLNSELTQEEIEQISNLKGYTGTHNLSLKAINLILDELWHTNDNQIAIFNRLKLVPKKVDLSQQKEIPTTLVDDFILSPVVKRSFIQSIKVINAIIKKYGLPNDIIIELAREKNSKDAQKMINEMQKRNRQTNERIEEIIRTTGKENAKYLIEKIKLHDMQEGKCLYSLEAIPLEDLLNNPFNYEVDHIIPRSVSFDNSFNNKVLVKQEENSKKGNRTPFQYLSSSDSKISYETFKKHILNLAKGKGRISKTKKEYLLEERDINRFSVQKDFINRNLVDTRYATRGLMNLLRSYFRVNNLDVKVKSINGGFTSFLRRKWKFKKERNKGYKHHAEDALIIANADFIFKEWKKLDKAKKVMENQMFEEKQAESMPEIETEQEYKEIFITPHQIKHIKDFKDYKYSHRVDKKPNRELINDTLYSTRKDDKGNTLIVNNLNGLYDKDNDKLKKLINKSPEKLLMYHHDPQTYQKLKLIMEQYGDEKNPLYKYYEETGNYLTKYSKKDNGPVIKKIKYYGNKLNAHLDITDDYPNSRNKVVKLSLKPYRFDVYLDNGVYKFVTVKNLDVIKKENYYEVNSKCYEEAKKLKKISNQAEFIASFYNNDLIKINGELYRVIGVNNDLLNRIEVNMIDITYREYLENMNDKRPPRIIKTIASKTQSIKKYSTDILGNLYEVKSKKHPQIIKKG
Assay: eGFP secondary assay, SaCas9
Assay type: cell-based
Settings: for Z score Avg Z: average of two replicates, Zscore>3 selected as hit; for Normalized Inhibition Rep 1: replicate 1; for Normalized eGFP Disruption Rep 1: replicate 1, % eGFP disruption; for Z score Rep1: replicate 1, Zscore>3 selected as hit; for Normalized Inhibition Rep 2: replicate 2; for Normalized eGFP Disruption Rep 2: replicate 2, % eGFP disruption; for Z score Rep 2: replicate 2, Zscore>3 selected as hit
Procedure: All hit compounds were moved forward into the secondary and tertiary screens, in which they were tested in cell-based assays. An eGFP assay is used to determine hits in cells as the secondary screen (eGFP assay).
The eGFP secondary assay evaluated the hits identified from the primary screen. The compounds were judged off the % eGFP disruption to determine the Cas9 inhibition and the assay Zscore. […] The hits from the secondary screens will be processed through tertiary screens of dose studies and HiBit Assay as detailed herein.

| SMILES | Z score Avg Z | Normalized Inhibition Rep 1 | Normalized eGFP Disruption Rep 1 | Z score Rep1 | Normalized Inhibition Rep 2 | Normalized eGFP Disruption Rep 2 | Z score Rep 2 |
| --- | --- | --- | --- | --- | --- | --- | --- |
| Cc1cccc(NC(=O)c2cc3c(=O)n4ccccc4nc3s2)c1 [C243-0026] | 3.100 | 30.470 | 69.530 | 3.063 | 40.519 | 59.481 | 3.136 |
| CCOc1ccc(NC(=O)c2cc(=O)c3cc(CC)ccc3o2)c2cccnc12 [Compound D656-0061] | 3.973 | 7.616 | 92.384 | 1.153 | 56.899 | 43.101 | 6.794 |
| CCCCn1nnnc1NCc1ccc2c(c1)n(C)c(=O)n2C [Compound D664-0047] | 4.425 | 21.201 | 78.799 | 3.210 | 47.229 | 52.771 | 5.639 |
| Fc1cccc(-c2nnc3sc(-c4c[nH]c5ccccc45)nn23)c1 [Compound D727-0772] | 3.957 | 42.243 | 57.757 | 6.397 | 12.707 | 87.293 | 1.517 |
| Cc1ccc(-n2ncc(C(=O)Nc3ccc(Br)cc3)c2C2CCNCC2)cc1 [Compound E922-0258] | 7.627 | 63.301 | 36.699 | 7.494 | 59.004 | 40.996 | 7.761 |
| CCCCN(CC)C(=O)C1CCCN(c2ccc(-c3ccccc3)nn2)C1 (stereo not drawn) [Compound F305-0030] | 4.852 | 42.608 | 57.392 | 5.044 | 35.423 | 64.577 | 4.659 |
| Cc1nc(Nc2ccc(N3CCOCC3)cc2)cc(-c2ccccc2)n1 [D278-0547] | 4.467 | 55.528 | 44.472 | 5.583 | 43.307 | 56.693 | 3.352 |
| Cc1ccccc1CC(=O)N1CCCC(c2nc(O)c3nnn(Cc4ccc(F)cc4)c3n2)C1 (stereo not drawn) [D297-0031] | 3.488 | 35.959 | 64.041 | 3.615 | 43.425 | 56.575 | 3.361 |
| Cc1cc(=O)c2cc(C(=O)Nc3ccc(F)cc3)ccc2[nH]1 [D421-0876] | 3.719 | 37.535 | 62.465 | 3.774 | 47.343 | 52.657 | 3.664 |
| Cc1nc2nc(N(CCOc3ccccc3)S(=O)(=O)c3ccccc3)nn2c(C)c1Cl [D513-3628] | 5.173 | 51.726 | 48.274 | 5.201 | 66.480 | 33.520 | 5.145 |
| Cc1ccc(C)c(Nc2nc(C(N)=O)c(NC(=O)c3ccc(C)nc3Cl)s2)c1 [D686-0195] | 6.110 | 29.879 | 70.121 | 4.525 | 64.458 | 35.542 | 7.696 |
| O=c1oc2c(O)c(O)ccc2c2c1CCCC2 [D715-2438] | 3.681 | 17.908 | 82.092 | 2.712 | 38.947 | 61.053 | 4.650 |
| COc1ccccc1-c1nn2c(-c3cccnc3)nnc2s1 [D727-0059] | 3.290 | 17.227 | 82.773 | 2.609 | 33.253 | 66.747 | 3.970 |
| Cc1cc(-c2nn3c(-c4cccc(F)c4)nnc3s2)c2ccccc2n1 [D727-0417] | 3.995 | 33.326 | 66.674 | 5.046 | 24.659 | 75.341 | 2.944 |
| Cc1nn(-c2ccccc2)c(C)c1CCc1nnc2sc(-c3ccc(N(C)C)cc3)nn12 [D727-0717] | 6.053 | 33.284 | 66.716 | 5.040 | 59.171 | 40.829 | 7.065 |
| CC(C)Cc1nnc2sc(-c3c[nH]c4ccccc34)nn12 [D727-0768] | 4.634 | 20.049 | 79.951 | 3.036 | 52.187 | 47.813 | 6.231 |
| COc1cccc(N2C(=O)c3cc4ccccc4n3CC2(C)C(=O)NC2CCCCC2)c1 (stereo not drawn) [E234-0006] | 5.194 | 57.048 | 42.952 | 6.753 | 27.639 | 72.361 | 3.635 |
| CC1(C(=O)NC2CCCCC2)Cn2c(cc3ccccc32)C(=O)N1Cc1ccccc1 (stereo not drawn) [E234-0008] | 5.237 | 50.589 | 49.411 | 5.989 | 34.101 | 65.899 | 4.485 |
